Our source for the half-life values is ChEMBL document CHEMBL1148227, “Biosynthesis of vitamin B6: direct identification of the product of the PdxA-catalyzed oxidation of 4-hydroxy-l-threonine-4-phosphate using electrospray ionization mass spectrometry” (Bioorg Med Chem Lett, 2004).

What all share (type): ADME
Common to all, as to details: buffer

Series [1] in a line: Half life at pH 5.9.
A short description of series [2]: Half life at pH 8.1.
Series [3] in a line: Half life at pH 7.8.

In general, half-life refers to the time needed for the level to fall by half in the phase considered. The low end stands for fast loss, the high end for slow loss. For `CC(=O)C(N)C(=O)O` (stereo not drawn), the results for the half-life in series [1] and in series [2] were 8.57 min and 15.2 min, respectively. Regarding `NC(C(=O)O)C(=O)COP(=O)(O)O` (stereo not drawn), the half-life in series [3] amounted to 10 min.
